Article PMC4936272 (Bioorganic & medicinal chemistry letters, 2016)

How the values were obtained:
Male ICR mice = assay: Mouse tail flick test; assay type: in vivo; conditions: for Analgesia in tail flick test: 50 mg/kg intraperitoneal (IP); for Analgesia in tail flick test, dose-response: lower doses than 50 mg/kg IP
human FAAH = target: T1, human FAAH (Homo sapiens, UniProt O00519); assay: Reversibility of FAAH inactivation by exhaustive dialysis; conditions: 144 hrs dialysis at 4°C after complete inactivation
T1 sequence (O00519 34-579): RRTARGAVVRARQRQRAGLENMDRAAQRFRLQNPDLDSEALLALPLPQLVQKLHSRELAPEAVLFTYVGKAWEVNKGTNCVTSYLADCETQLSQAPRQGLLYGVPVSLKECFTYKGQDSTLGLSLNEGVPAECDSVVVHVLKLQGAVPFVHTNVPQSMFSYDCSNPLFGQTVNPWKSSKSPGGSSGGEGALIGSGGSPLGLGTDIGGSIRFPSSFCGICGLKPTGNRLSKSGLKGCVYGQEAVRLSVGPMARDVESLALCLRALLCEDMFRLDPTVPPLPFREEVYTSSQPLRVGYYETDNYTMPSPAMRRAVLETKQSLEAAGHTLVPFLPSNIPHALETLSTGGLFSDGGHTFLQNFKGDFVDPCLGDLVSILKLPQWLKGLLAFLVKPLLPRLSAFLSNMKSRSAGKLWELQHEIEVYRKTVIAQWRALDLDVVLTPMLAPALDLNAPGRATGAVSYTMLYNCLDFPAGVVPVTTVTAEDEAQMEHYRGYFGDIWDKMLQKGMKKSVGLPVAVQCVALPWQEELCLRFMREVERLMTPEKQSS

FAAH = conditions: cited from earlier work

Structure (SMILES)	Analgesia in tail flick test (Male ICR mice)	Analgesia in tail flick test, dose-response (Male ICR mice)	also measured
O=C(Nc1cccnn1)N1CCC(c2nc(C3=NOC(c4ccccc4)C3)cs2)CC1 (stereo not shown) [Compound 2f]	significant analgesic effects	failed to produce significant analgesia	
O=C(Nc1ccccc1)N1CCN(c2nc(-c3ccccc3)ns2)CC1 [JNJ-1661010]			Recovery of FAAH activity after dialysis (human FAAH): ~30%
N#Cc1ccc(OC(=O)N2CCC(c3nc(C4=NOC(c5ccccc5)C4)cs3)CC2)cc1 (stereo not shown) [Compound 1b]	significant analgesic effects	clear dose-dependent effects down to 5 mg/kg	
O=C(Nc1cnccn1)N1CCC(c2nc(C3=NOC(c4ccccc4)C3)cs2)CC1 (stereo not shown) [Compound 2e]	significant analgesic effects	failed to produce significant analgesia	
O=C(Nc1cccnc1)N1CCC(Cc2cccc(Oc3ccc(C(F)(F)F)cn3)c2)CC1 [PF-3845]			kinact reported for other chemotypes (FAAH): 0.0033 s⁻¹
O=C(Oc1ccccc1)N1CCC(c2nc(C3=NOC(c4ccccc4)C3)cs2)CC1 (stereo not shown) [Compound 1a, phenyl 4-[4-(4,5-dihydro-5-phenyl-3-isoxazolyl)-2-thiazolyl]-1-piperidinecarboxylate]	significant analgesic effects	failed to produce significant analgesia	
O=C(Oc1cccnc1)N1CCC(c2nc(C3=NOC(c4ccccc4)C3)cs2)CC1 (stereo not shown) [Compound 1o]	did not produce analgesia		
COc1ccc(OC(=O)N2CCC(c3nc(C4=NOC(c5ccccc5)C4)cs3)CC2)cc1 (stereo not shown) [Compound 1p]	did not produce analgesia		
